Test results: patent US20260124170A1, “PHARMACEUTICAL COMPOSITION COMPRISING METABOLITE OF ENAVOGLIFLOZIN, AND USE THEREOF” (DAEWOONG PHARMACEUTICAL CO., LTD., priority 2022, published 2026)
“Also recorded” adds a separate entry of the source.

What was measured:
SGLT2 [1] = molecular target: T1, SGLT2 (Homo sapiens, UniProt P31639); experiment: Applicant's preliminary study of SGLT2 inhibition, intracellular retention and activity recovery; type: cell-based
T1 construct: expressed in transfected cells
T1 sequence (P31639 1-672): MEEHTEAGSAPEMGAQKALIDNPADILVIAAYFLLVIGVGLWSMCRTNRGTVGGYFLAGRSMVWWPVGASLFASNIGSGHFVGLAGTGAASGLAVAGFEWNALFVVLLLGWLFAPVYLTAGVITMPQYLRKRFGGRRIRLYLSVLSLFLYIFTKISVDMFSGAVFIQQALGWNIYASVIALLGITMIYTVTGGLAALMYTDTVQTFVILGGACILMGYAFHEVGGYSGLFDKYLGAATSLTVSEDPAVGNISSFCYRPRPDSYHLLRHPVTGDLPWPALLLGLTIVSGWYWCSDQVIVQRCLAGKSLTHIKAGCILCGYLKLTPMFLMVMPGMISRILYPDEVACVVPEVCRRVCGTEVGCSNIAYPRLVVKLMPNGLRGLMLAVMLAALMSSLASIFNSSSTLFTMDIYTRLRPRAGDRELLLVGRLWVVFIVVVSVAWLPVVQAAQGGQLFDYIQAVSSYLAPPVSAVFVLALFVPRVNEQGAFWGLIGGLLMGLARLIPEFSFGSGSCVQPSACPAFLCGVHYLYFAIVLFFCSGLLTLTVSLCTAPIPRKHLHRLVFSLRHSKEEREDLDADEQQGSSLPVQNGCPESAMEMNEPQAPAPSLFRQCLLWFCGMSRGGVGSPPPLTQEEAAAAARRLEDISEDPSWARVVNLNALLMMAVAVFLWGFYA

[2] = system: STZ-induced type 1 diabetic rats; experiment: Oral glucose tolerance test in type 1 diabetic rat model; type: in vivo; details: for Blood glucose level in OGTT: glucose 2 g/kg oral
Procedure: (§1) STZ was administered to Sprague Dawley (SD) male 5-week-old rats on day 0 (G2 to G7, excluding G1), and non-fasting blood glucose levels were measured on day 3 to determine whether type 1 diabetes was induced. On day 7, the experimental substances were administered to each group, and blood and urine samples were collected at 6 h, 24 h, 48 h, and 72 h to measure non-fasting blood glucose levels. On day 14 of the experiment, the experimental animals were fasted for 16 h, and on day 15, 2 g/kg of glucose solution was orally administered after the experimental substances were administered. Thereafter, blood glucose levels were measured at 15, 30, 60, 90, and 120 minutes after glucose administration. After blood collection, the serum was separated, and the IL-6 inflammatory response was evaluated using an interleukin-6 (IL-6) enzyme-linked immunosorbent assay (ELISA) kit.

SGLT2 [3] = molecular target: T1, SGLT2; experiment: Inhibition of [14C]AMG uptake in SGLT2-overexpressing CHO cells; type: cell-based; details: for IC50: CHO-SGLT2 cells, 10 μM [14C]AMG, 2 h, 37° C.; for IC50 ratio (SGLT1/SGLT2): ratio of SGLT1 IC50 to SGLT2 IC50
Procedure: The evaluation was performed in the same manner as the evaluation of SGLT1 inhibition, except that an SGLT2-overexpressing cell line (CHO-SGLT2 stable cells) was used, and the inhibitory evaluation substances described below were used.

interleukin-6 (IL-6) = experiment: Serum IL-6 ELISA in type 1 diabetic rat model; type: in vivo; details: STZ rats, 6, 24, 48, 72 hours after administration
Procedure: as §1

normal rats = experiment: Urinary glucose excretion (UGE) after intravenous administration; type: in vivo, rat; details: 1 mg/kg intravenous, 6-72 hours
Procedure: Enavogliflozin, M1, or M2 was intravenously administered once to normal rats, and antidiabetic efficacy was evaluated.
To perform the oral glucose tolerance test (OGTT) and examine urinary glucose excretion (UGE), enavogliflozin, M1, or M2 was administered intravenously to male 8-week-old normal rats at a dose of 1 mg/kg, and then a glucose solution (2 g/kg) was administered to load blood sugar. The blood sugar level was measured before glucose solution administration and at 5, 10, 15, 20, 30, 40, 60, 90, and 120 minutes after the administration to evaluate oral glucose tolerance. In addition, the UGE was evaluated by measuring the amount of glucose excreted in the urine 6, 24, 48, and 72 hours after the administration of the glucose solution.

[4] = system: STZ-induced type 1 diabetic rats; experiment: Non-fasting blood glucose in type 1 diabetic rat model; type: in vivo; details: 1 mg/kg single intravenous dose
Procedure: as §1

[5] = Half-life of M2 (rapid dissipation); details: in vivo

| Amount of drug remaining in the cells (SGLT2 [1]; after culturing for 24 hours, compared to dapagliflozin and ipragliflozin) | Change in inhibition after pretreatment (SGLT2 [1]; pretreatment for up to two hours, preliminary study) | IC50 (SGLT2 [3]) [nM] | IC50 ratio (SGLT1/SGLT2) (SGLT2 [3]) | half-life [5] [min] | SMILES | Inhibition mechanism of SGLT2 (Dixon plot and Replot) (SGLT2 [1]; preliminary study) | Blood glucose level in OGTT ([2]; STZ rats, 1 mg/kg) | Change in IL-6 level (interleukin-6 (IL-6)) | Urinary glucose excretion (UGE) (normal rats) | AUC of blood glucose in OGTT ([2]; STZ rats, 1 mg/kg) | Dose dependence of glucose tolerance in OGTT ([2]; STZ rats, 0.01, 0.1, 1 mg/kg) | Non-fasting blood sugar level [4] |
| --- | --- | --- | --- | --- | --- | --- | --- | --- | --- | --- | --- | --- |
| significantly higher | no change in inhibition | 0.34 ± 0.08 | 2538 | – | OC[C@H]1O[C@@H](c2cc(Cc3ccc(C4CC4)cc3)c(Cl)c3c2CCO3)[C@H](O)[C@@H](O)[C@@H]1O [Enavogliflozin, (2S,3R,4R,5S,6R)-2-(7-chloro-6 (4-cyclopropylbenzyl)-2,3-dihydrobenzofuran-4-yl)-6-(hydroxymethyl)tetrahydro-2H-pyran-3,4,5-triol] | reversible competitive inhibition mechanism | lowering of the blood glucose level was observed | slight decrease | – | – | – | – |
| – | – | 4.71 ± 0.69 | 6.0 | – | OC[C@H]1O[C@@H](c2cc(Cc3ccc(C4CC4)cc3)c(Cl)c3c2CC(O)O3)[C@H](O)[C@@H](O)[C@@H]1O (stereo partly drawn) [M1, (2S,3R,4R,5S,6R)-2-(7-chloro-6-(4-cyclopropylbenzyl)-2-hydroxy-2,3-dihydrobenzofuran-4-yl)-6-(hydroxymethyl)tetrahydro-2H-pyran-3,4,5-triol] | – | fastest and strongest blood glucose lowering effect | significant decrease in all dose groups | UGE was observed from six hours after intravenous administration; also recorded: similar | best oral glucose tolerance improvement effect | dose-dependent improvement in glucose tolerance | lowest blood sugar level at 48 hours after administration |
| – | – | 3.02 ± 0.36 | 402 | 48 | OC[C@H]1O[C@@H](c2cc(Cc3ccc(C4(O)CC4)cc3)c(Cl)c3c2CCO3)[C@H](O)[C@@H](O)[C@@H]1O [M2, (2S,3R,4R,5S,6R)-2-(7-chloro-6-(4-(1-hydroxycyclopropyl)benzyl)-2,3-dihydrobenzofuran-4-yl)-6-(hydroxymethyl)tetrahydro-2H-pyran-3,4,5-triol] | – | – | – | UGE was observed from six hours after intravenous administration; also recorded: less glucose was excreted than enavogliflozin and M1 for up to 24 hours | – | – | – |
